# Source: a melting point compilation (Tetko et al.; mined from patent text by program, amines drawn as free bases though some values may be those of a salt)
row,SMILES,melting point [°C]
1,CN1C(=O)C(C)(C)N=C(c2ccccc2F)c2cc(N)ccc21,190 to 191
2,Cc1c(NC(=O)c2ccc(OC[C@@H]3CCCO3)cc2)ccc2cc(CNCCOC(C)C)cnc12,111 to 113
3,COc1cccc(C(=O)Nc2ccc(N3CCOCC3)cc2C(C)=O)c1OC,146 to 148
4,CCC(=O)NCCC1c2cc(OC)ccc2-c2ccc3c(c21)OCO3 (stereo not given),145 to 147
5,CCOC(=O)c1csc(C)c1N(CC)c1nc(C)cc(C)n1,99 to 100
6,CCNC(=O)C1CC(=O)N(Cc2ccccc2)C1 (stereo not given),97 to 99
7,O=C1c2cccc(O)c2NC(O)C2CCCN12 (stereo not given),155 to 157
8,CCC1=c2ccccc2=NC1=O,100 to 101
9,O=C(O)CCCCN1CCN(C2=Nc3ccccc3Oc3ccc(Cl)cc32)CC1,223 to 226
10,CC1(C)CCC(C)(C)c2cc(NC(=O)c3ccc(CO)cc3)ccc21,161 to 162
11,CCOC(=O)C(=O)CC(=O)CC(=O)c1ccc(Cl)cc1,93 to 94
12,CNS(=O)(=O)c1ccc(-c2cc(N3CCOCC3)cc(Nc3ccc(OC(F)(F)F)cc3)n2)cc1,234 to 236
13,C#Cc1ccc(C23OCC(c4ccc(F)c(F)c4)(CO2)CO3)cc1,204 to 205
14,O=C1N=NC(=O)c2c1[nH]c1cc(Br)ccc21,260
15,N#Cc1cccc2c1CN(C1CCC(=O)NC1=O)C2=O (stereo not given),312 to 314
16,Cc1c(Cc2ccccc2)c(=O)oc2cc(OCC3NOC(=O)N3)cc(OCC3NOC(=O)N3)c12 (stereo not given),130 to 136
17,N#Cc1c(N2CCc3ccccc3CC2)[nH]c(=O)[nH]c1=O,183 to 186
18,O=C(Cn1ccnc1)c1cccc(-c2ccccc2)c1,128 to 129
19,CC(C)C(=O)Oc1ccc2c(c1Cl)Sc1ccccc1N2,155
20,Fc1ccc(CN2CC=C(/C=C/c3ccccc3)CC2)cc1,115 to 117
21,Cc1ccccc1C1(CNC(=O)Nc2c(C(C)C)cccc2C(C)C)CCCC1,147 to 150
22,CCCOC(=O)c1cn(C2CC2)c2nc(N3CCC(N)C3)c(F)cc2c1=O (stereo not given),125 to 126
23,Cc1c(C(N)=O)oc2ccc(Cc3cccnc3)cc12,175 to 177
24,CCCCc1nc2ccccn2c(=O)c1-c1ccc(N[C@@H]2CCN(C(=O)OC(C)(C)C)C2)cc1C,162 to 168
25,O=C(O)CCCCCNC(=O)S[C@@H]1CC(=O)N(Cc2ccc(Oc3ccc(F)cc3)nc2)C1,129 to 130

row,SMILES,melting point [°C]
1,COC(=O)Cn1c(SCc2nccc(SCCN3CCOCC3)c2C)nc2ccccc21,128 to 129
2,CC(N)CC(=O)Nc1c(OCC(F)(F)F)cccc1-c1ccccn1 (stereo not given),135 to 137
3,CC(=O)N1c2ccccc2-n2cnc(-c3nc(C4CC4)no3)c2C1(C)C,169 to 171
4,CNC(=O)CC1CSc2c(C(=O)OC(C)C)c(C)cn21 (stereo not given),108 to 109
5,O=C(O)c1cn(Cc2cnsn2)c2cc(F)c(F)cc2c1=O,278 to 282
6,Fc1cccc2c1CNC2,46.5 to 48.5
7,O=C(O)CN(C(=O)CCSC(=O)c1ccccc1)[C@H]1CC[C@H](c2ccccc2)CC1,125 to 128
8,CC(=O)N=c1[nH]c2ccccc2n1CCCN1CCN(C(c2ccccc2)c2ccccc2)CC1,143
9,O=Cc1cn(Cc2ccc(Cl)cc2)c2ccccc12,122
10,CCCn1c(COCC)nc2c(N)nc3cc(OC4CCN(C(=O)NC(C)C)CC4)ccc3c21,163 to 164
11,COc1c(C(C)=O)cnc2c([N+](=O)[O-])cccc12,100 to 105
12,CCOC(=O)Nc1ccc(C(c2ccccc2)n2ccnc2)cc1COC1CCCCO1 (stereo not given),132
13,CC(C)n1nc(-c2sc(NC3CCCCC3)nc2-c2ccccc2)ccc1=O,149 to 151
14,CCc1c(-c2cc(C)c(O)c(C)c2)[nH]c2ccc(OC)cc12,176 to 178
15,CCOc1cc(OC)c(/C=C/C(=O)c2ccc(C(=O)O)cc2)cc1-c1cccs1,210 to 212
16,C=CCC1(O)CCC2C3CCC4=CC(=O)CCC4C3CCC21Cc1cccc(N(C)C)c1 (stereo not given),142
17,CNC(=O)c1ccc(C=CC(=O)Nc2cccc(-c3ccc(C)c(CCl)c3C)c2)cc1,236 to 244
18,Cn1cc(-c2cc(-c3cnc4[nH]ccc4c3)ccn2)n(-c2ccc(C(C)(C)C(N)=O)cc2)c1=O,299
19,CCCCC1(C(=O)Nc2ccc(Oc3ccc(Cl)cc3)c(C(F)(F)F)c2)CC1,104 to 106
20,CSc1ccc(CC(=O)C(=O)O)cc1,165 to 167
21,CN(C)CCCn1nc2c(c1-c1ccccc1)CCc1ccccc1-2,60 to 62
22,COc1cc(CCCC2SC(=O)NC2=O)cc(OC)c1OCc1ccccc1 (stereo not given),101 to 102
23,Cc1nc(Nc2ccc(F)cc2)nc(O)c1C,256
24,CC(C)(C)OC(=O)N1CCN(CC(=O)O)CC1,195 to 197
25,COCCOc1ccc(COC(=O)NS(=O)(=O)CCC(C)C)c(Oc2ncc(C(F)(F)F)cc2Cl)c1,122 to 124

row,SMILES,melting point [°C]
1,CN1CC(CCCl)Oc2ncccc2C1=S (stereo not given),134 to 136
2,CC(C)N(CCC(CCN(C(C)C)C(C)C)(C(N)=O)c1ccccc1C(F)(F)F)C(C)C,131 to 132
3,O=CN(O)C(CO)CS(=O)(=O)c1ccc(-c2ccc(Cl)cc2)cc1 (stereo not given),153 to 154
4,COC(=O)C1C(C)=NC(N2CCCC2)=C(C(=O)OC(C)C)C1c1cccc([N+](=O)[O-])c1 (stereo not given),140
5,COC(OC)C1CCC2C3CCC4CC(O)CCC4(C)C3C(=O)CC12C (stereo not given),136 to 142
6,Cc1ccccc1COC(=O)NC(CO)Cc1ccc(O)cc1 (stereo not given),78 to 81
7,CC(C)c1ccc(-c2csc(-c3cccc(C(=O)O)c3)c2)cc1,220 to 222
8,CC(=O)NC(C(=O)NC(C(=O)NC(Cc1ccccc1)C(O)C(Cc1ccccc1)NC(=O)C(NC(=O)C(NC(C)=O)C(C)C)C(C)C)C(C)C)C(C)C (stereo not given),271 to 272
9,CN(C)C(=O)C(C)(C)n1cc(C#N)c(-c2ccccc2)n1,116 to 119
10,CN(C(=O)CN(C(=O)CN1C(=O)c2ccccc2C1=O)c1ccccc1Cl)c1ccccc1,168
11,CC(C)c1ccc(C2COc3ccc(Br)cc32)cc1 (stereo not given),90 to 91
12,CCc1c(F)c(F)c(F)c2c1c(=O)c(C(=O)O)cn2C1CC1,197 to 198
13,CC(C)n1nc(-c2cc(C#N)c(C(N)=O)nc2-c2ccccc2)ccc1=O,221 to 223
14,Cc1cc(C)n(-c2nc(Nc3ccc(I)cc3)c3ccccc3n2)n1,226 to 229
15,O=C(O)c1ccc2cc(O)c(O)cc2c1,241 to 250
16,CCCc1c(CS(=O)Cc2ccc(-c3nnn[nH]3)cc2)ccc(C(C)=O)c1O (stereo not given),112 to 116
17,NCC1(SCc2ccccc2)C2CC3CC(C2)CC1C3 (stereo not given),82 to 85
18,COC(=O)c1ccc(OCCCOc2ccccc2)cc1O,90 to 92
19,S=C(NCCc1ccccc1)N1CCN(c2cnccn2)CC1,162 to 163
20,Fc1ccc(-c2[nH]cc(CCCN3CCNCC3)c2-c2ccncc2)cc1,162 to 164
21,COC(=O)Cc1ccc(OCCCOc2cc3c(cc2O)CCO3)cc1,108 to 110
22,CS(=O)(=O)c1ccc(-c2cnn(CC(F)(F)F)c(=O)c2OCc2ccccc2)cc1,121 to 123
23,COc1ccc(C2CCN(CCC3CCCCc4ccccc43)CC2)cc1OC (stereo not given),127 to 128
24,COCC(CCO)(OC)c1cccc(OCc2ccc3ccccc3c2)c1 (stereo not given),64 to 65
25,O=C(O)C1=c2ccccc2=CC=C2CC=CC=C21,129

row,SMILES,melting point [°C]
1,CC(C)(NC(=O)C(O)C(Cc1ccc(S(C)(=O)=O)cc1)NC(=O)OCc1ccccc1)C(=O)O (stereo not given),146 to 147
2,COc1cccc2c1OC(CO)CN2 (stereo not given),108 to 110
3,Cc1ccc(C(=O)Nc2ccc(-n3nc(C(F)(F)F)cc3C(F)(F)F)cc2)cc1,225 to 226
4,Cc1ccc(S(=O)(=O)NC(=O)Nc2c(Br)cc(Br)cc2Br)cc1,230
5,Cc1cc(NC(=O)c2c(Cl)cccc2Cl)c2nccc(NNC(C)C)c2c1,154 to 156
6,O=C(C=Cc1ccc(F)cc1)C(=O)Nc1ccc(C(F)(F)F)cc1,200 to 201
7,CCCCN(CCCC)c1ccc(C=Cc2ccc(C(C#N)=C(C#N)C#N)s2)c(OCc2ccccc2)c1,125 to 130
8,O=C(Nc1ccc(Cl)cc1)NS(=O)(=O)c1ccc2c(c1)CCC2,169 to 172
9,COC(=O)NNC(=O)c1cc(OC)c(OC)c(OC)c1,145
10,CCN1CCc2c([nH]c3ccccc23)C1CNC(=O)OCc1ccccc1 (stereo not given),92 to 94
11,CCc1cccc(CC)c1NC(=NCc1cccc(CCl)c1)Nc1c(CC)cccc1CC,83.5 to 86.5
12,OC(CS)(Cn1cncn1)c1ccc(F)cc1F (stereo not given),112 to 113
13,Cc1ccccc1Cc1c(C)c(NC(=O)CC(C)(C)C)c(C)c2c1OC(C)(C)C2,175 to 176
14,Nc1ccc(-c2c(-c3ccccc3)c(-c3ccccc3)c(-c3ccc(N)cc3)c(-c3ccccc3)c2-c2ccccc2)cc1,453
15,NS(=O)(=O)c1ccc(S(=O)(=O)N2CCC(=O)CC2)cc1,194 to 195
16,Oc1nc2ccc3cn[nH]c3c2nc1O,> 300
17,Cc1cccc2c1-c1ccccc1C2CO (stereo not given),120 to 122
18,CC1C=CC(NC(=O)OC(C)(C)C)C([N+](=O)[O-])C1c1cc([N+](=O)[O-])ccc1Cl (stereo not given),195 to 203
19,COc1nc(Cl)cnc1N(C(=O)OCC(C)C)S(=O)(=O)c1ccccc1-c1ccc(O)cc1,175 to 177
20,O=C(O)C1=Cc2cc(Cl)cc(C#Cc3ccc(Cl)cc3)c2OC1C(F)(F)F (stereo not given),210 to 211
21,Cn1c(C(=O)O)c(-c2ccc(F)cc2)c2ccn(C)c2c1=O,155 to 157
22,O=Cc1ccc2cccc3c4cccc5cccc(c1c23)c54,232 to 234
23,O=C1N(CC2CCN(c3ccccn3)CC2)c2ccccc2C12COc1cc3c(cc12)OCO3 (stereo not given),95 to 97
24,COCCN(CCOC)c1ccc(NC(=O)Nc2ccc(Oc3ccncc3)cc2)cc1C(F)(F)F,64.5 to 65
25,Cn1cc(Br)c(=O)c(-c2ccccc2)c1,195 to 197
